This note sets out measurements from patent publication US20180057505A1, “BICYCLIC HETEROARYL COMPOUNDS USEFUL AS INHIBITORS OF THE PAR-2 SIGNALING PATHWAY” (VERTEX PHARMACEUTICALS INCORPORATED, priority 2015, published 2018).

A word on the IC50: it is the midpoint of a concentration-inhibition curve.

Format in all cases: cell-based
The target of assay [1] is T1, PAR2 (HT-29 cells) (Homo sapiens, UniProt P55085).
T1 construct: host or cells: HT-29
T1 sequence (P55085 26-397): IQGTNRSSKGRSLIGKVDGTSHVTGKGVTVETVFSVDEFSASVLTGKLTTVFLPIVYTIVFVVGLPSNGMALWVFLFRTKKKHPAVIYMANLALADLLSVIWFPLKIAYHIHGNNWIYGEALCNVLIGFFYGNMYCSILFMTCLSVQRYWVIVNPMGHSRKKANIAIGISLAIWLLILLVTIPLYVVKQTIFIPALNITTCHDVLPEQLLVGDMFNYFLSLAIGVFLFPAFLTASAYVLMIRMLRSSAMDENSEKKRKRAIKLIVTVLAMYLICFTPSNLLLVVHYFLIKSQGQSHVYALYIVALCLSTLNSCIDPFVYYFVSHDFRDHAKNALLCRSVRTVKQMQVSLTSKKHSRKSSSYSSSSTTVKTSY
Nature of the assay: Ca FLIPR TETRA assay, ANTAGONIST mode, activator 8 μM SLIGKV. The note with it: HT-29 cells, activator 8 μM SLIGKV; maximal antagonist concentration per Method (A: 0.1, 1 or 2 μM; B: 50 μM). The procedure, abridged: (§1)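 Antagonist-mode FLIPR Tetra Ca2+ read: dye-loaded HT-29 cells preincubated 30 min at r.t. with compound (first read checks agonism alone), then challenged with final 3.1 U/mL trypsin, 8 μM SLIGKV, 1 U/mL thrombin or 0.6 μM UTP. Cells plated overnight in 1% FBS McCoy's; Calcium 5 loading 45 min 37 °C plus 15 min r.t.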

Assay [2] concerns the target T1, PAR2 (HT-29 cells). Briefly: Ca FLIPR TETRA assay, ANTAGONIST mode, activator 3.1 U/mL trypsin. The note with it: HT-29 cells, activator 3.1 U/mL trypsin; maximal antagonist concentration per Method (A: 0.1, 1 or 2 μM; B: 50 μM). The procedure, abridged: as §1
Assay [3] relates to Thrombin-stimulated Ca2+ response in HT-29 cells. Briefly: Ca FLIPR TETRA assay, ANTAGONIST mode, activator 1 U/mL Thrombin. The settings on record: Homo sapiens; HT-29 cells, activator 1 U/mL Thrombin. The procedure, abridged:
as §1

The test system of assay [4] is UTP-stimulated Ca2+ response in HT-29 cells. Briefly: Ca FLIPR TETRA assay, ANTAGONIST mode, activator 0.6 μM UTP. The settings on record: Homo sapiens; HT-29 cells, activator 0.6 μM UTP. The procedure, abridged: as §1

On to `CC(C)(C)c1cc(-c2ccc(Cl)cc2)nc2cc(C(=O)N3CCN(c4ccncc4)CC3(C)C)oc12` [Example I-262], for which the IC50 at PAR2 (HT-29 cells) [1] is 770 nM; at PAR2 (HT-29 cells) [2], 1900 nM; in assay [3], > 2000 nM; in assay [4] it was > 2000 nM.

On to `Cc1ccc(N2CCN(C(=O)c3cc4nc(-c5ccc(Cl)cc5)cc(C(C)(C)C)c4o3)C(C)(C)C2)nn1` [Example I-263], for which the IC50 was 2.6 nM at PAR2 (HT-29 cells) [1], 3.9 nM on PAR2 (HT-29 cells) [2], > 2000 nM in assay [3] and > 2000 nM in assay [4].

For the compound `Cc1cnc(N2CCN(C(=O)c3cc4nc(-c5ccc(Cl)cc5)cc(C(C)(C)C)c4o3)C(C)(C)C2)cn1` [Example I-264], the IC50 at PAR2 (HT-29 cells) [1] is 15 nM; on PAR2 (HT-29 cells) [2], 18 nM; in assay [3], > 2000 nM; in assay [4] it was > 2000 nM.

Regarding `Cc1cncnc1N1CCN(C(=O)c2cc3nc(-c4ccc(Cl)cc4)cc(C(C)(C)C)c3o2)C(C)(C)C1` [Example I-265], the IC50 at PAR2 (HT-29 cells) [1] was 5.8 nM; on PAR2 (HT-29 cells) [2], 5.5 nM; in assay [3], > 2000 nM; in assay [4], > 2000 nM.

Turning to `Cc1nccnc1N1CCN(C(=O)c2cc3nc(-c4ccc(Cl)cc4)cc(C(C)(C)C)c3o2)C(C)(C)C1` [Example I-266], the IC50 on PAR2 (HT-29 cells) [1] was 36 nM; on PAR2 (HT-29 cells) [2], 33 nM; in assay [3], > 2000 nM; in assay [4], > 2000 nM.

On to `CC(C)(C)c1cc(-c2ccc(Cl)c(F)c2)nc2cc(C(=O)N3CCN(c4cccnc4)CC3(C)C)oc12` [Example I-267, [7-tert-butyl-5-(4-chloro-3-fluoro-phenyl)furo[3,2-b]pyridin-2-yl]-[2,2-dimethyl-4-(3-pyridyl)piperazin-1-yl]methanone], for which the IC50 on PAR2 (HT-29 cells) [1] was 33 nM; on PAR2 (HT-29 cells) [2] it was 25 nM; in assay [3], > 2000 nM; in assay [4], > 2000 nM.

Consider `COC(=O)c1cccc(N2CCN(C(=O)c3cc4nc(-c5ccc(Cl)c(F)c5)cc(C(C)(C)C)c4o3)C(C)(C)C2)n1` [Example I-268], for which the IC50 at PAR2 (HT-29 cells) [1] was 4.9 nM; at PAR2 (HT-29 cells) [2], 9.4 nM; in assay [3], > 2000 nM; in assay [4], > 2000 nM.

For the compound `CC(C)(C)c1cc(-c2ccc(Cl)cc2)nc2cc(C(=O)N3CCN(c4cccnc4)CC3(C)C)oc12` [Example I-269], the IC50 on PAR2 (HT-29 cells) [1] is 57 nM; at PAR2 (HT-29 cells) [2], 41 nM; in assay [3] it was > 2000 nM; in assay [4], > 2000 nM.

As for `CC1(C)CCC(c2cc(C(C)(C)C)c3oc(C(=O)N4CCN(c5ccccn5)CC4(C)C)cc3n2)CC1` [Example I-270], the IC50 on PAR2 (HT-29 cells) [1] was 21 nM; on PAR2 (HT-29 cells) [2] it was 51 nM; in assay [3], > 2000 nM; in assay [4] it was > 2000 nM.

Turning to `CC(C)(C)c1cc(-c2ccc(Cl)c(F)c2)nc2cc(C(=O)N3CCN(c4ccccn4)CC3(C)C)oc12` [Example I-271], the IC50 on PAR2 (HT-29 cells) [1] was 7.4 nM; on PAR2 (HT-29 cells) [2], 7.8 nM; in assay [3], > 2000 nM; in assay [4], > 2000 nM.

In the case of `CC(C)(C)c1cc(-c2ccc(Cl)cc2)nc2cc(C(=O)N3CCN(c4ccccn4)CC3(C)C)oc12` [Example I-272], the IC50 on PAR2 (HT-29 cells) [1] is 21 nM; at PAR2 (HT-29 cells) [2], 14 nM; in assay [3], > 2000 nM; in assay [4], > 2000 nM.

Consider `CC(C)(C)c1cc(-c2ccc(Cl)cc2)nc2cc(C(=O)N3CCN(c4cn[nH]c4)CC3(C)C)oc12` [Example I-273], for which the IC50 on PAR2 (HT-29 cells) [1] is 26 nM; at PAR2 (HT-29 cells) [2], 14 nM; in assay [3], > 2000 nM; in assay [4], > 2000 nM.

Regarding `CC(C)(C)c1cc(-c2ccc(Cl)cc2)nc2cc(C(=O)N3CCN(c4ccc(C(=O)O)nc4)CC3(C)C)oc12` [Example I-274], the IC50 at PAR2 (HT-29 cells) [1] is 61 nM; on PAR2 (HT-29 cells) [2] it was 34 nM; in assay [3] it was > 2000 nM; in assay [4], > 2000 nM.

Consider `Cc1cc(-c2cc(C(C)(C)C)c3oc(C(=O)N4CCN(c5cn[nH]c5)C(=O)C4(C)C)cc3n2)ccc1Cl` [Example I-275, 4-[7-tert-butyl-5-(4-chloro-3-methyl-phenyl)furo[3,2-b]pyridine-2-carbonyl]-3,3-dimethyl-1-(1H-pyrazol-4-yl)piperazin-2-one], for which the IC50 at PAR2 (HT-29 cells) [1] is 16 nM; on PAR2 (HT-29 cells) [2], 20 nM; in assay [3] it was > 2000 nM; in assay [4] it was > 2000 nM.

In the case of `Cc1ccnc(N2CCN(C(=O)c3cc4nc(-c5ccc(Cl)c(F)c5)cc(C(C)(C)C)c4o3)C(C)(C)C2=O)n1` [Example I-276], the IC50 was 1.2 nM on PAR2 (HT-29 cells) [1], 1.8 nM at PAR2 (HT-29 cells) [2], > 2000 nM in assay [3] and > 2000 nM in assay [4].

Regarding `CC(C)(C)c1cc(-c2ccc(Cl)c(F)c2)nc2cc(C(=O)N3CCN(c4cc(C(=O)O)n[nH]4)C(=O)C3(C)C)oc12` [Example I-280, 5-[4-[7-tert-butyl-5-(4-chloro-3-fluoro-phenyl)furo[3,2-b]pyridine-2-carbonyl]-3,3-dimethyl-2-oxo-piperazin-1-yl]-1H-pyrazole-3-carboxylic acid], the IC50 was 36 nM at PAR2 (HT-29 cells) [1], 52.5 nM on PAR2 (HT-29 cells) [2], > 2000 nM in assay [3] and > 2000 nM in assay [4].

In the case of `CC1(C)CCC(c2cc(C(C)(C)C)c3oc(C(=O)N4CCN(c5ccc(C(=O)O)cn5)C(=O)C4(C)C)cc3n2)CC1` [Example I-281, 6-[4-[7-tert-butyl-5-(4,4-dimethylcyclohexyl)furo[3,2-b]pyridine-2-carbonyl]-3,3-dimethyl-2-oxo-piperazin-1-yl]pyridine-3-carboxylic acid], the IC50 at PAR2 (HT-29 cells) [1] was 3.6 nM; on PAR2 (HT-29 cells) [2], 7.4 nM; in assay [3], 1750 nM; in assay [4], > 2000 nM.

Turning to `CC(C)(C)c1cc(-c2ccc(Cl)cc2)nc2cc(C(=O)N3CCN(c4ccc(C(=O)O)cn4)C(=O)C3(C)C)oc12` [Example I-282, 6-[4-[7-tert-butyl-5-(4-chlorophenyl)furo[3,2-b]pyridine-2-carbonyl]-3,3-dimethyl-2-oxo-piperazin-1-yl]pyridine-3-carboxylic acid], the IC50 at PAR2 (HT-29 cells) [1] was 7.5 nM; at PAR2 (HT-29 cells) [2], 8.3 nM; in assay [3] it was 1600 nM; in assay [4], 1800 nM.

On to `CC1(C)CCC(c2cc(C(C)(C)C)c3oc(C(=O)N4CCN(c5ccn[nH]5)C(=O)C4(C)C)cc3n2)CC1` [Example I-283, 4-[7-tert-butyl-5-(4,4-dimethylcyclohexyl)furo[3,2-b]pyridine-2-carbonyl]-3,3-dimethyl-1-(1H-pyrazol-5-yl)piperazin-2-one], for which the IC50 at PAR2 (HT-29 cells) [1] was 18 nM; at PAR2 (HT-29 cells) [2], 61.5 nM; in assay [3] it was > 2000 nM; in assay [4], > 2000 nM.

Regarding `Cc1cc(N2CCN(C(=O)c3cc4nc(-c5ccc(Cl)c(F)c5)cc(C(C)(C)C)c4o3)C(C)(C)C2=O)[nH]n1` [Example I-284, 4-[7-tert-butyl-5-(4-chloro-3-fluoro-phenyl)furo[3,2-b]pyridine-2-carbonyl]-3,3-dimethyl-1-(3-methyl-1H-pyrazol-5-yl)piperazin-2-one], the IC50 on PAR2 (HT-29 cells) [1] was 13 nM; on PAR2 (HT-29 cells) [2], 14.5 nM; in assay [3], > 2000 nM; in assay [4], > 2000 nM.

In the case of `Cc1cc(N2CCN(C(=O)c3cc4nc(-c5ccc(Cl)cc5)cc(C(C)(C)C)c4o3)C(C)(C)C2=O)[nH]n1` [Example I-285, 4-[7-tert-butyl-5-(4-chlorophenyl)furo[3,2-b]pyridine-2-carbonyl]-3,3-dimethyl-1-(3-methyl-1H-pyrazol-5-yl)piperazin-2-one], the IC50 at PAR2 (HT-29 cells) [1] was 28 nM; at PAR2 (HT-29 cells) [2], 23.5 nM; in assay [3] it was > 2000 nM; in assay [4], > 2000 nM.

As for `CC(C)(C)c1cc(-c2ccc(Cl)c(F)c2)nc2cc(C(=O)N3CCN(c4cc(C(=O)O)ccn4)CC3(C)C)oc12` [Example I-286], the IC50 at PAR2 (HT-29 cells) [1] was 1.4 nM; at PAR2 (HT-29 cells) [2], 2.6 nM; in assay [3] it was > 2000 nM; in assay [4], > 2000 nM.

`CC(C)(C)c1cc(-c2ccc(Cl)c(F)c2)nc2cc(C(=O)N3CCN(c4ccc(C(=O)O)cn4)CC3(C)C)oc12` [Example I-287]: the IC50 on PAR2 (HT-29 cells) [1] amounted to 0.3 nM; at PAR2 (HT-29 cells) [2], 0.5 nM; in assay [3], 1800 nM; in assay [4], 1620 nM.

For the compound `CC(C)(C)c1cc(-c2ccc(Cl)c(F)c2)nc2cc(C(=O)N3CCN(c4nc(C(=O)O)co4)CC3(C)C)oc12` [Example I-289], the IC50 at PAR2 (HT-29 cells) [1] was 0.1 nM; on PAR2 (HT-29 cells) [2], 0.3 nM; in assay [3] it was > 2000 nM; in assay [4], > 2000 nM.

Take `Cn1cc(C(=O)O)c(C(=O)N2CCN(C(=O)c3cc4nc(C5CC6(CCC6)C5)cc(C(C)(C)C)c4o3)C(C)(C)C2)n1` [Example I-291]: the IC50 on PAR2 (HT-29 cells) [1] is 0.7 nM; on PAR2 (HT-29 cells) [2] it was 1.1 nM; in assay [3], > 2000 nM; in assay [4], > 2000 nM.
